The experiment addresses T1, CETP (Homo sapiens, UniProt P11597).
T1 construct: from tissue; host or cells: human plasma from healthy men
T1 sequence (P11597 18-493): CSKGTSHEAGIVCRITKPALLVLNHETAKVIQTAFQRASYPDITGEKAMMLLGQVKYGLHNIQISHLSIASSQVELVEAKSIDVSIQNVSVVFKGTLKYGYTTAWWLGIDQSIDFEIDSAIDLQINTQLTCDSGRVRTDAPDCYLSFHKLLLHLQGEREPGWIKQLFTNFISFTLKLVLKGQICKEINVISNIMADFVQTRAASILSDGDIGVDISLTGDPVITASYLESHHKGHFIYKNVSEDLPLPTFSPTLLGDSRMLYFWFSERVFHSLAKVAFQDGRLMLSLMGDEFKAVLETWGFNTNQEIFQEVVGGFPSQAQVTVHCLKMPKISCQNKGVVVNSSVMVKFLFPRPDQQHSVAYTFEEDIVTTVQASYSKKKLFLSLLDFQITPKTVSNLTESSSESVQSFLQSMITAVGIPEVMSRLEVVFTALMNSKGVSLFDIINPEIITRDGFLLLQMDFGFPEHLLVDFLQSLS
As to the kind of experiment: Inhibitory activity against CETP in human plasma (Roar CETP activity kit, fluorescence). Type of experiment: biochemical. To be noted: plasma from healthy men diluted 1:10 in assay buffer, 37° C., 3 hrs, fluorescence 465/535 nm; read-out: IC50, Inhibition of CETP Activity in Human Plasma. The procedure:
A CETP activity kit (#RB-CETP) was purchased from Roar […], Inc. A donor and an acceptor (each, 4 ul), a 10× assay buffer (177 ul), and each of dilutions of test compounds in dimethylsulfoxide (DMSO, Sigma-Aldrich) (0.01 nM˜10000 nM) were added to each well of black round-bottom 96-well plates (Corning #3792). Plasma samples from healthy men were diluted in the assay buffer (1:10=plasma:assay buffer), and added to each well. The plates were sealed with a sealing film (Sigma-Aldrich, #Z369659), and incubated in a 37° C. incubator microplate shaker (#SLST-3, Seolin Bio) for 3 hrs. After removal of the sealing film, fluorescence was read on Spectra Max Gemini EM (Molecular devices) with an excitation wavelength of 465 nm and an emission wavelength of 535 nm. Measurements were calculated according to the following formula. Calculated value=(Fluorescence Intensity with both compound and plasma−Fluorescence Intensity with compound but without plasma)/(Fluorescence Intensity with plasma but without compound−Fluorescence Intensity with neither compound nor plasma)
From the calculated value, a sigmoidal curve (y=start+(end-start)x^n/k^n+x^n) was drawn using Origin Software (OriginLab Corporation, ver. 8.0724) to obtain IC50 values.
On to `C[C@H]1[C@@H](c2cc(C(F)(F)F)cc(C(F)(F)F)c2)OC(=O)N1Cc1cc(C(F)(F)F)cnc1N(C)C1CCOC1` (stereo partly drawn) [Example 1, (4S,5R)-5-[3,5-bis(trifluoromethyl)phenyl]-4-methyl-3-[(2-(methyl(tetrahydrofuran-3-yl)amino)-5-(trifluoromethyl)pyridin-3-yl)methyl]-oxazolidin-2-one], for which the IC50 was found to be 112 nM.

Consider `CCN(c1ncc(C(F)(F)F)cc1CN1C(=O)O[C@H](c2cc(C(F)(F)F)cc(C(F)(F)F)c2)[C@@H]1C)C1CCOC1` (stereo partly drawn) [Example 2, (4S,5R)-5-[3,5-bis(trifluoromethyl)phenyl]-4-methyl-3-{(2-[ethyl(tetrahydrofuran-3-yl)amino]-5-(trifluoromethyl)pyridin-3-yl)methyl}-oxazolidin-2-one], for which the 50% inhibitory concentration (IC50) was 143 nM.

On to `CCN(c1ncc(C(F)(F)F)cc1CN1C(=O)O[C@H](c2cc(C(F)(F)F)cc(C(F)(F)F)c2)[C@@H]1C)C1CCOCC1` [Example 7, (4S,5R)-5-[3,5-bis(trifluoromethyl)phenyl]-4-methyl-3-({[2-(ethyl)(tetrahydro-2H-pyran-4-yl)amino]-5-(trifluoromethyl)pyridin-3-yl}methyl)-oxazolidin-2-one], for which the half-maximal inhibitory concentration (IC50) turned out to be 6.3 nM.

Regarding `CCCN(c1ncc(C(F)(F)F)cc1CN1C(=O)O[C@H](c2cc(C(F)(F)F)cc(C(F)(F)F)c2)[C@@H]1C)C1CCOCC1` [Example 8, (4S,5R)-5-[3,5-bis(trifluoromethyl)phenyl]-4-methyl-3-({[2-(propyl)(tetrahydro-2H-pyran-4-yl)amino]-5-(trifluoromethyl)pyridin-3-yl}methyl)-oxazolidin-2-one], the IC50 was determined as 14 nM.

On to `CCCCN(c1ncc(C(F)(F)F)cc1CN1C(=O)O[C@H](c2cc(C(F)(F)F)cc(C(F)(F)F)c2)[C@@H]1C)C1CCOCC1` [Example 9, (4S,5R)-5-[3,5-bis(trifluoromethyl)phenyl]-4-methyl-3-({[2-(butyl)(tetrahydro-2H-pyran-4-yl)amino]-5-(trifluoromethyl)pyridin-3-yl}methyl)-oxazolidin-2-one], for which the half-inhibitory concentration (IC50) is 68 nM.

As for `C[C@H]1[C@@H](c2cc(C(F)(F)F)cc(C(F)(F)F)c2)OC(=O)N1Cc1cc(C(F)(F)F)cnc1N(C1CCOCC1)C1CC1` [Example 10], the IC50 stood at 60 nM.

With `C[C@H]1[C@@H](c2cc(C(F)(F)F)cc(C(F)(F)F)c2)OC(=O)N1Cc1cc(C(F)(F)F)cnc1N(C1CCC1)C1CCOCC1` [Example 11, (4S,5R)-5-[3,5-bis(trifluoromethyl)phenyl]-4-methyl-3-({[2-(cyclobutyl)(tetrahydro-2H-pyran-4-yl)amino]-5-(trifluoro)methylpyridin-3-yl}methyl)-oxazolidin-2-one], the IC50 amounted to 317 nM.

On to `CCN(c1ncccc1CN1C(=O)O[C@H](c2cc(C(F)(F)F)cc(C(F)(F)F)c2)[C@@H]1C)C1CCOCC1` [Example 14, (4S,5R)-5-[3,5-Bis(trifluoromethyl)phenyl]-4-methyl-3-({[2-ethyl(tetrahydro-2H-pyran-4-yl)amino]-pyridin-3-yl}methyl)-oxazolidin-2-one], for which the IC50 was determined as 98 nM.

Take `CCN(c1ncc(C(F)(F)F)cc1CN1C(=O)O[C@H](c2cc(C(F)(F)F)cc(C(F)(F)F)c2)[C@@H]1C)C1CCCOC1` (stereo partly drawn) [Example 15, (4S,5R)-5-[3,5-bis(trifluoromethyl)phenyl]-4-methyl-3-({[2-ethyl(tetrahydro-2H-pyran-3-yl)amino]-5-(trifluoromethyl)pyridin-3-yl}methyl)-oxazolidin-2-one]: the IC50 came to 10 nM.

As to `CCN(c1ncc(F)cc1CN1C(=O)O[C@H](c2cc(C(F)(F)F)cc(C(F)(F)F)c2)[C@@H]1C)C1CCOCC1` [Example 16, (4S,5R)-5-[3,5-Bis(trifluoromethyl)phenyl]-4-methyl-3-({2-[ethyl(tetrahydro-2H-pyran-4-yl)amino]-5-fluoropyridin-3-yl}methyl)-oxazolidin-2-one], the IC50 turned out to be 75 nM.

`C[C@H]1[C@@H](c2cc(C(F)(F)F)cc(C(F)(F)F)c2)OC(=O)N1Cc1cc(C(F)(F)F)cnc1N(CC(=O)OC(C)(C)C)C1CCOCC1` [Example 17, t-butyl 2-([3-({(4S,5R)-5-[3,5-bis(trifluoromethyl)phenyl]-4-methyl-2-oxo-oxazolidin-3-yl}methyl)-5-(trifluoromethyl)pyridin-2-yl]-(tetrahydro-2H-pyran-4-yl)amino)-acetate]: the IC50 is 379 nM.

As to `C[C@H]1[C@@H](c2cc(C(F)(F)F)cc(C(F)(F)F)c2)OC(=O)N1Cc1cc(C(F)(F)F)cnc1N(CCO)C1CCOCC1` [Example 18, (4S,5R)-5-[3,5-Bis(trifluoromethyl)phenyl]-4-methyl-3-({[2-(hydroxyethyl)(tetrahydro-2H-pyran-4-yl)amino]-5-(trifluoromethyl)pyridin-3-yl}methyl)-oxazolidin-2-one], the concentration for half-maximal inhibition (IC50) is 91 nM.

As for `C[C@H]1[C@@H](c2cc(C(F)(F)F)cc(C(F)(F)F)c2)OC(=O)N1Cc1cc(C(F)(F)F)cnc1N(C)C1CCCOCC1` (stereo partly drawn) [Example 20, (4S,5R)-5-[3,5-bis(trifluoromethyl)phenyl]-4-methyl-3-({[2-(methyl)(oxepen-4-yl)amino]-5-(trifluoromethyl)pyridin-3-yl}methyl)-oxazolidin-2-one], the concentration for half-maximal inhibition (IC50) amounted to 59 nM.

For the compound `CCN(c1ncc(C(F)(F)F)cc1CN1C(=O)O[C@H](c2cc(C(F)(F)F)cc(C(F)(F)F)c2)[C@@H]1C)C1CCC2(CC1)OCCO2` [Example 21, (4S,5R)-5-[3,5-bis(trifluoromethyl)phenyl]-4-methyl-3-({[2-(ethyl)(1,4-dioxaspiro[4.5]decan-8-yl)amino]-5-trifluoromethylpyridin-3-yl}methyl)-oxazolidin-2-one], the IC50 was found to be 114 nM.

Regarding `CCN(c1ncc(C(F)(F)F)cc1CN1C(=O)O[C@H](c2cc(C(F)(F)F)cc(C(F)(F)F)c2)[C@@H]1C)C1CCC(=O)CC1` [Example 22, (4S,5R)-5-[3,5-bis(trifluoromethyl)phenyl]-4-methyl-3-({[2-(ethyl)(4-oxocyclohexyl)amino]-5-(trifluoromethyl)pyridin-3-yl}methyl)-oxazolidin-2-one], the IC50 was found to be 10 nM.

On to `CCNC1CCC(N(CC)c2ncc(C(F)(F)F)cc2CN2C(=O)O[C@H](c3cc(C(F)(F)F)cc(C(F)(F)F)c3)[C@@H]2C)CC1` (stereo partly drawn) [Example 23, (4S,5R)-5-[3,5-bis(trifluoromethyl)phenyl]-4-methyl-3-({[2-(ethyl)(4-ethylaminocyclohexyl)amino]-5-(trifluoromethyl)pyridin-3-yl}methyl)-oxazolidin-2-one], for which the half-inhibitory concentration (IC50) was found to be 44.4 nM.

As to `CCN(c1ncc(C(F)(F)F)cc1CN1C(=O)O[C@H](c2cc(C(F)(F)F)cc(C(F)(F)F)c2)[C@@H]1C)C1CCC(CC(=O)OC)CC1` (stereo partly drawn) [Example 24, methyl 2-(4-{[3-({(4S,5R)-5-[3,5-bis(trifluoromethyl)phenyl]-4-methyl-2-oxo-oxazolidin-3-yl}methyl)-5-(trifluoromethyl)pyridin-2-yl](ethyl)amino}cyclohexyl)acetate], the IC50 worked out at 185 nM.

Take `CCN(c1ncc(C(F)(F)F)cc1CN1C(=O)O[C@H](c2cc(C(F)(F)F)cc(C(F)(F)F)c2)[C@@H]1C)C1CCSCC1` [Example 25, (4S,5R)-5-[3,5-bis(trifluoromethyl)phenyl]-4-methyl-3-({[2-(ethyl)(tetrahydro-2H-thiopyran-4-yl)amino]-5-(trifluoromethyl)pyridin-3-yl}methyl)-oxazolidin-2-one]: the 50% inhibitory concentration (IC50) amounted to 108 nM.

For the compound `CCN(c1ncc(C(F)(F)F)cc1CN1C(=O)O[C@H](c2cc(C(F)(F)F)cc(C(F)(F)F)c2)[C@@H]1C)C1CC[S+]([O-])CC1` (stereo partly drawn) [Example 26, (4S,5R)-5-[3,5-bis(trifluoromethyl)phenyl]-4-methyl-3-({[2-(ethyl)(1-oxidotetrahydro-2H-thiopyran-4-yl)amino]-5-(trifluoromethyl)pyridin-3-yl}methyl)-oxazolidin-2-one], the half-maximal inhibitory concentration (IC50) is 100 nM.

With `CCN(c1ncc(C(F)(F)F)cc1CN1C(=O)O[C@H](c2cc(C(F)(F)F)cc(C(F)(F)F)c2)[C@@H]1C)C1CCN(C(=O)OC(C)(C)C)CC1` [Example 27, t-butyl 4-{[3-({(4S,5R)-5-[3,5-bis(trifluoromethyl)phenyl]-4-methyl-2-oxo-oxazolidin-3-yl}methyl)-5-(trifluoromethyl)pyridin-2-yl](ethyl)amino}piperidine-1-carboxylate], the concentration for half-maximal inhibition (IC50) turned out to be 430 nM.

`CCN(c1ncc(C(F)(F)F)cc1CN1C(=O)O[C@H](c2cc(C(F)(F)F)cc(C(F)(F)F)c2)[C@@H]1C)C1CCN(C)CC1` [Example 29, (4S,5R)-5-[3,5-bis(trifluoromethyl)phenyl]-4-methyl-3-({[2-(ethyl)(1-methylpiperidin-4-yl)amino]-5-(trifluoromethyl)pyridin-3-yl}methyl)-oxazolidin-2-one]: the 50% inhibitory concentration (IC50) came out at 540 nM.

One may read the IC50 as the concentration at which inhibition is half-maximal.

The values above are taken from patent publication US9533977B2, “Oxazolidinone derivative as CETP inhibitor, its preparation method, and pharmaceutical composition comprising the same” (DONG-A ST CO., LTD., priority 2013, dated 2017).
